From paper PMC10712727, “Safety, Tolerability, and Pharmacokinetics of Senaparib, a Novel PARP1/2 Inhibitor, in Chinese Patients With Advanced Solid Tumors: A Phase I Trial” (The Oncologist, 2023)

System: patients with advanced solid tumors
Experiment: Safety: treatment-emergent and senaparib-related adverse events graded per NCI CTCAE v4.03
Format: in vivo
Description: This phase I, open-label, multicenter, dose-escalation, and dose-expansion study was conducted at three national clinical institutions in China. […] At baseline, all patients enrolled in the dose-escalation phase had to have at least one evaluable lesion, and those in the dose-expansion period had to have at least one measurable lesion, according to Response Evaluation Criteria in Solid Tumors version 1.1 (RECIST v1.1).[16] Entry to the dose-expansion cohort required the presence of a BRCA mutation, with the exception of patients with ovarian carcinoma, fallopian tube carcinoma, and primary peritoneal carcinoma. Full study eligibility criteria are provided in Supplementary Table S1.
Dose escalation was conducted using a modified Fibonacci 3 + 3 method (Supplementary Fig. S1).[17] Patients were administered oral senaparib from a planned starting dose of 2 mg once daily (QD), with preliminary dose escalation to 120 mg via nine dose groups, in order of their entry into the study. At a given dose level, each patient received a single dose of senaparib followed by a 7-day washout period. They then entered a continuous dosing period to confirm the safety and PK profile, in which they received senaparib QD from day 1 to day 21 of each 3-week cycle. Progression to the next higher dose required approval from the Data Safety Monitoring Committee (DSMC) upon review of the safety and PK data of the previous dose. A 50-mg twice-daily (BID) dosing group was added (planned enrollment, n = 6 patients) based on a DSMC review of the safety, PK, and efficacy analysis of the completed QD dose groups in the phase I clinical trial of senaparib dose escalation in Australia (NCT03507543), which commenced prior to the start of this trial.
The dose-expansion period included 3 populations: dose groups in which at least one patient achieved complete response (CR) or partial response (PR) per RECIST v1.1[16] and 1 dose group higher (evaluated for safety), as well as the dose group at the maximum tolerated dose (MTD)/recommended phase II dose (RP2D). Each of these groups included those patients in the respective dose-escalation group plus a planned additional 10 patients (approximately 20 patients in the MTD/RP2D group) with BRCA^mut+ solid tumors (ovarian, breast, or prostate cancer were preferred, and ovarian cancer could be BRCA wild type). Patients received senaparib monotherapy orally QD or BID (50-mg dose only) over each 3-week cycle until disease progression or unacceptable toxicity.
DLTs were predefined toxicities (Supplementary Table S2) recorded over the 7 days following the single-dose administration of senaparib and during the first treatment cycle (day 1-day 21) for each dose group in the dose-escalation period only. The MTD was defined as the maximum dose at which ≤1/6 patients experienced a DLT. Senaparib PK parameters were derived from blood samples collected from patients after the single administration, and at regular intervals during the first cycle of the dose-escalation and dose-expansion periods. Plasma concentrations of senaparib were determined using high-performance liquid chromatography-tandem mass spectrometry. Tumor response was assessed every 6 weeks per RECIST v1.1,[16] recording objective response rate (ORR), disease control rate (DCR), duration of response (DOR), and progression-free survival (PFS) by dose level for all patients and for those harboring BRCA^mut+ tumors.

With `O=C(c1cc(Cn2c(=O)[nH]c(=O)c3c(F)cccc32)ccc1F)N1CCN(c2ncccn2)CC1` [Senaparib] the “AST increased TRAE, All” value (60 mg QD n = 5) was 0 n (%), the “AST increased TRAE, Gr≥3” value (60 mg QD n = 5) was 0 n (%) and the “Anemia TRAE, All” value (60 mg QD n = 5) was 0 n (%). For the same molecule, the “Anemia TRAE, Gr≥3” value (60 mg QD n = 5) was 0 n (%), the “Any TEAE, All” value (60 mg QD n = 5) was 5 (100) n (%) and the “Any TEAE, Gr≥3” value (60 mg QD n = 5) was 2 (40.0) n (%). The “Any TEAE, events” value (60 mg QD n = 5) was 33 n ev, the “Any TEAE, patients” value (60 mg QD n = 5) was 5 (100) n (%) and the “Any TRAE, All” value (60 mg QD n = 5) was 5 (100) n (%). For the same molecule, the “Any TRAE, Gr≥3” value (60 mg QD n = 5) was 0 n (%), the “Appetite decreased TRAE, All” value (60 mg QD n = 5) was 1 (20.0) n (%) and the “Appetite decreased TRAE, Gr≥3” value (60 mg QD n = 5) was 0 n (%). The “Asthenia TRAE, All” value (60 mg QD n = 5) was 1 (20.0) n (%), the “Asthenia TRAE, Gr≥3” value (60 mg QD n = 5) was 0 n (%) and the “Blood bilirubin increased TRAE, All” value (60 mg QD n = 5) was 0 n (%). For the same molecule, the “Blood bilirubin increased TRAE, Gr≥3” value (60 mg QD n = 5) was 0 n (%), the “Blood creatinine increased TRAE, All” value (60 mg QD n = 5) was 1 (20.0) n (%) and the “Blood creatinine increased TRAE, Gr≥3” value (60 mg QD n = 5) was 0 n (%). For the same molecule, the “Hypokalemia TRAE, All” value (60 mg QD n = 5) was 1 (20.0) n (%), the “Hypokalemia TRAE, Gr≥3” value (60 mg QD n = 5) was 0 n (%) and the “Nausea TRAE, All” value (60 mg QD n = 5) was 1 (20.0) n (%). For the same molecule, the “Nausea TRAE, Gr≥3” value (60 mg QD n = 5) was 0 n (%), the “Neutrophil count decreased TRAE, All” value (60 mg QD n = 5) was 1 (20.0) n (%) and the “Neutrophil count decreased TRAE, Gr≥3” value (60 mg QD n = 5) was 0 n (%). For the same molecule, the “Platelet count decreased TRAE, All” value (60 mg QD n = 5) was 2 (40.0) n (%), the “Platelet count decreased TRAE, Gr≥3” value (60 mg QD n = 5) was 0 n (%) and the “SAEs, events” value (60 mg QD n = 5) was 2 n ev. For the same molecule, the “SAEs, patients” value (60 mg QD n = 5) was 2 (40.0) n (%), the “TEAE Grade ≥3, events” value (60 mg QD n = 5) was 2 n ev and the “TEAE Grade ≥3, patients” value (60 mg QD n = 5) was 2 (40.0) n (%). The “TEAEs leading to death, events” value (60 mg QD n = 5) was 0 n ev, the “TEAEs leading to death, patients” value (60 mg QD n = 5) was 0 n (%) and the “TEAEs leading to dose discontinuation, events” value (60 mg QD n = 5) was 1 n ev. The “TEAEs leading to dose discontinuation, patients” value (60 mg QD n = 5) was 1 (20.0) n (%), the “TEAEs leading to dose interruption, events” value (60 mg QD n = 5) was 1 n ev and the “TEAEs leading to dose interruption, patients” value (60 mg QD n = 5) was 1 (20.0) n (%). For the same molecule, the “TEAEs leading to dose reduction, events” value (60 mg QD n = 5) was 0 n ev, the “TEAEs leading to dose reduction, patients” value (60 mg QD n = 5) was 0 n (%) and the “TRAEs Grade ≥3, events” value (60 mg QD n = 5) was 0 n ev. For the same molecule, the “TRAEs Grade ≥3, patients” value (60 mg QD n = 5) was 0 n (%), the “TRAEs, events” value (60 mg QD n = 5) was 27 n ev and the “TRAEs, patients” value (60 mg QD n = 5) was 5 (100) n (%). The “Vomiting TRAE, All” value (60 mg QD n = 5) was 0 n (%), the “Vomiting TRAE, Gr≥3” value (60 mg QD n = 5) was 0 n (%) and the “WBC decreased TRAE, All” value (60 mg QD n = 5) was 2 (40.0) n (%). The “WBC decreased TRAE, Gr≥3” value (60 mg QD n = 5) was 0 n (%), the “ALT increased TRAE, All” value (80 mg QD n = 9) was 1 (11.1) n (%) and the “ALT increased TRAE, Gr≥3” value (80 mg QD n = 9) was 0 n (%). The “AST increased TRAE, All” value (80 mg QD n = 9) was 2 (22.2) n (%), the “AST increased TRAE, Gr≥3” value (80 mg QD n = 9) was 0 n (%) and the “Anemia TRAE, All” value (80 mg QD n = 9) was 7 (77.8) n (%). The “Anemia TRAE, Gr≥3” value (80 mg QD n = 9) was 3 (33.3) n (%), the “Any TEAE, All” value (80 mg QD n = 9) was 9 (100) n (%) and the “Any TEAE, Gr≥3” value (80 mg QD n = 9) was 6 (66.7) n (%). For the same molecule, the “Any TEAE, events” value (80 mg QD n = 9) was 132 n ev, the “Any TEAE, patients” value (80 mg QD n = 9) was 9 (100) n (%) and the “Any TRAE, All” value (80 mg QD n = 9) was 9 (100) n (%). For the same molecule, the “Any TRAE, Gr≥3” value (80 mg QD n = 9) was 5 (55.6) n (%).
